Experimental data published in patent publication US8207154B2, “Catatonic bacteriochlorophyll derivatives” (Yeda Research and Development Co., Ltd., priority 2005, dated 2012).
Like-named read-outs stand apart in the source and are kept apart here.

System: H5V cells
Assay: Phototoxicity assay (PDT efficacy at two incubation times), neutral red survival
Format: cell-based, mouse
Conditions: then 10 min illumination, 12 J/cm^2
Protocol: H5V cells (40×10^3/well) were cultured in 96-well plates for 24 h to ˜80% confluence. To determine phototoxicity, the culture medium was replaced with 100 μl/well medium, in the absence or presence of 10^−8 to 10^−6 M sensitizer, and incubated in the dark for 15 min or 3 h in the culture incubator. The plates (PDT group) were then placed in the light field at room temperature and illuminated from the bottom for 10 min (800>λ>650 nm, 12 J/cm^2). After illumination, the medium was changed to fresh culture medium. The cultures were then placed in the culture incubator and cell survival was determined 24 h later, using the neutral red survival assay described below.
Following 24 h post PDT the culture medium in the wells was replaced with 100 μl fresh medium containing 40 μg/ml neutral red. The plate was incubated for 1.5 h in a dark culture incubator. The medium was aspirated and the cells washed with 100 μl of solution containing 1% CaCl2 and 0.5% formaldehyde, which removes the unincorporated dye and fixes the cells to the substratum. The dye was then extracted from the cells into the supernatant upon addition of 100 μl 1% glacial acetic acid in 50% ethanol. After 1-2 min at room temperature, the optical density of the wells was determined in a microplate spectrophotometer using a 570 nm filter. After subtraction of assay blanks, net optical density was computed as the average value of triplicate determinations. Cell survival was calculated as the percent of the dye accumulated in the untreated control. To determine cell survival data was plotted against sensitizer concentration. These curves were then used to calculated LD50 values.
Following synthesis, the compounds described in the Examples 23 to 75 above were purified, divided into equal aliquots and lyophilized for storage (desiccated at −20° C.). The exact material content was determined by HPLC-diode array detection, and the PDT efficacy was evaluated at two incubation times as described in the experimental section.

[1] = 15 min incubation in the dark, read-out: IC50 15 min
[2] = 3 h incubation in the dark, read-out: IC50 3 hours

Compound	IC50 [1] [nM]	IC50 [2] [nM]
CC[C@H]1C2=NC(=Cc3c(C(C)=O)c(C)c4[n]3[Pd][n]3c(c(C)c(C(=O)NCCN(C)C)c3=C(CC(=O)OC)C3=NC(=C4)[C@@H](C)[C@@H]3CCC(=O)NCCN(C)C)=C2)[C@@H]1C [Compound 36, Palladium 3^1-oxo-15-methoxycarbonylmethyl-Rhodobacteriochlorin-13^1, 17^3-di(2-N^2-dimethylaminoethyl)amide]	370	150
CCC1c2cc3[n-]c(c(CC(=O)OC)c4nc(cc5[n-]c(cc(n2)C1C)c(C(C)=O)c5C)C(C)C4CCC(=O)NCCN1CCNCC1)c(C(=O)NCCN1CCNCC1)c3C.[Pd+2] (stereo not shown) [Compound 41, Palladium 3^1-oxo-15-methoxycarbonylmethyl-Rhodobacteriochlorin-13^1, 17^3-di(2-piperazino-N-ethyl)amide]	1130	460
CC[C@H]1C2=NC(=Cc3c(C(C)=O)c(C)c4[n]3[Pd][n]3c(c(C)c(C(=O)NCCN5CCNCC5)c3=C(CC(=O)OC)C3=NC(=C4)[C@@H](C)[C@@H]3CCC(=O)O)=C2)[C@@H]1C [Compound 30, Palladium 3^1-oxo-15-methoxycarbonylmethyl-Rhodobacteriochlorin-13^1-(2-piperazino-N-ethyl)amide]	1700	610
CC(=O)O.CC[C@H]1C2=NC(=Cc3c(C(C)=O)c(C)c4[n]3[Pd][n]3c(c(C)c(C(=O)NCCCNC)c3=C(CC(=O)OC)C3=NC(=C4)[C@@H](C)[C@@H]3CCC(=O)NCC(O)CO)=C2)[C@@H]1C (stereo partly shown) [Compound 64, Palladium 3^1-oxo-15-methoxycarbonylmethyl-Rhodobacteriochlorin-13^1-(3-N-methylaminopropyl)amide-17^3-(2,3-dihydroxypropyl)amide]	560	170
Palladium 3^1-oxo-15-methoxycarbonylmethyl-Rhodobacteriochlorin-13^1-(2-N^2-dimethylaminoethyl)amide-17^3-(glycosyl) amide [Compound 75]	500	160
CC[C@H]1C2=NC(=Cc3c(C(C)=O)c(C)c4[n]3[Pd][n]3c(c(C)c(C(=O)NCC(O)CO)c3=C(CC(=O)OC)C3=NC(=C4)[C@@H](C)[C@@H]3CCC(=O)NCCN(C)C)=C2)[C@@H]1C (stereo partly shown) [Compound 49, Palladium 3^1-oxo-15-methoxycarbonylmethyl-Rhodobacteriochlorin-13^1-(2,3-dihydroxypropyl)amide-17^3-(2-N^2-dimethylaminoethyl)amide]	1150	570
CC(=O)[O-].CC(=O)[O-].CC[C@H]1C2=NC(=Cc3c(C(C)=O)c(C)c4[n]3[Pd][n]3c(c(C)c(C(=O)NCC[N+](C)(C)C)c3=C(CC(=O)OC)C3=NC(=C4)[C@@H](C)[C@@H]3CCC(=O)NCC[N+](C)(C)C)=C2)[C@@H]1C [Compound 33, Palladium 3^1-oxo-15-methoxycarbonylmethyl-Rhodobacteriochlorin-13^1, 17^3-di(2-N^3-trimethylammoniumethyl)amide diacetate salt]	750	450
CC[C@H]1C2=NC(=Cc3c(C(C)=O)c(C)c4[n]3[Pd][n]3c(c(C)c(C(=O)NCC(O)CO)c3=C(CC(=O)OC)C3=NC(=C4)[C@@H](C)[C@@H]3CCC(=O)NCCN(CCN)CCN)=C2)[C@@H]1C (stereo partly shown) [Compound 58, Palladium 3^1-oxo-15-methoxycarbonylmethyl-Rhodobacteriochlorin-13^1-(2,3-dihydroxypropyl)amide-17^3-([2-bis(2-aminoethyl)amino]ethyl)amide]	640	370
CC[C@H]1C2=NC(=Cc3c(C(C)=O)c(C)c4[n]3[Pd][n]3c(c(C)c(C(=O)NCCCCN)c3=C(CC(=O)OC)C3=NC(=C4)[C@@H](C)[C@@H]3CCC(=O)NCCCCN)=C2)[C@@H]1C [Compound 35, Palladium 3^1-oxo-15-methoxycarbonylmethyl-Rhodobacteriochlorin-13^1, 17^3-di(4-aminobutyl)amide]	1230	210
CC[C@H]1C2=NC(=Cc3c(C(C)=O)c(C)c4[n]3[Pd][n]3c(c(C)c(C(=O)NCCNCCN(CC)CC)c3=C(CC(=O)OC)C3=NC(=C4)[C@@H](C)[C@@H]3CCC(=O)O)=C2)[C@@H]1C [Compound 31, Palladium 3^1-oxo-15-methoxycarbonylmethyl-Rhodobacteriochlorin-13^1-(2-[(2-N^2-diethylaminoethyl)amino]ethyl)amide]	2600	600
CC[C@H]1C2=NC(=Cc3c(C(C)=O)c(C)c4[n]3[Pd][n]3c(c(C)c(C(=O)NCCNCCN)c3=C(CC(=O)OC)C3=NC(=C4)[C@@H](C)[C@@H]3CCC(=O)NCC(O)CO)=C2)[C@@H]1C (stereo partly shown) [Compound 55, Palladium 3^1-oxo-15-methoxycarbonylmethyl-Rhodobacteriochlorin-13^1-(2-[(2-aminoethyl)amino]ethyl)amide-17^3-(2,3-dihydroxypropyl)amide]	1070	430
CC[C@H]1C2=NC(=Cc3c(C(C)=O)c(C)c4[n]3[Pd][n]3c(c(C)c(C(=O)NCCN5CCOCC5)c3=C(CC(=O)OC)C3=NC(=C4)[C@@H](C)[C@@H]3CCC(=O)NCCN3CCOCC3)=C2)[C@@H]1C [Compound 40, Palladium 3^1-oxo-15-methoxycarbonylmethyl-Rhodobacteriochlorin-13^1, 17^3-di(2-morpholino-N-ethyl)amide]	700	350
Palladium 3^1-oxo-15-methoxycarbonylmethyl-Rhodobacteriochlorin-13^1-(2-N^2-dimethylaminoethyl)amide-17^3-(2-(2-hydroxyethylamino)ethyl)amide [Compound 70]	550	160
CC[C@H]1C2=NC(=Cc3c(C(C)=O)c(C)c4[n]3[Pd][n]3c(c(C)c(C(=O)NCCN(C)C)c3=C(CC(=O)OC)C3=NC(=C4)[C@@H](C)[C@@H]3CCC(=O)O)=C2)[C@@H]1C [Compound 25, Palladium 3^1-oxo-15-methoxycarbonylmethyl-Rhodobacteriochlorin-13^1-(2-N^2-dimethylaminoethyl)amide]	1100	750
CC(=O)O.CC[C@H]1C2=NC(=Cc3c(C(C)=O)c(C)c4[n]3[Pd][n]3c(c(C)c(C(=O)NCCN(C)C)c3=C(CC(=O)OC)C3=NC(=C4)[C@@H](C)[C@@H]3CCC(=O)NCC(C)O)=C2)[C@@H]1C (stereo partly shown) [Compound 67, Palladium 3^1-oxo-15-methoxycarbonylmethyl-Rhodobacteriochlorin-13^1-(2-N^2-dimethylaminoethyl)amide-17^3-(2-hydroxypropyl)amide]	500	180
CCC1C2=Cc3c(C)c(C(=O)NCCN)c4[n]3[Pd][n]3c(c(C)c(C(C)=O)c3=CC(=N2)C1C)=CC1=NC(=C4CC(=O)OC)C(CCC(=O)NCC(O)CO)C1C (stereo not shown) [Compound 48, Palladium 3^1-oxo-15-methoxycarbonylmethyl-Rhodobacteriochlorin-13^1-(2-aminoethyl)amide-17^3-(2,3-dihydroxypropyl) amide]	600	200
CC[C@H]1C2=NC(=Cc3c(C(C)=O)c(C)c4[n]3[Pd][n]3c(c(C)c(C(=O)NCCNCCN)c3=C(CC(=O)OC)C3=NC(=C4)[C@@H](C)[C@@H]3CCC(=O)O)=C2)[C@@H]1C [Compound 27, Palladium 3^1-oxo-15-methoxycarbonylmethyl-Rhodobacteriochlorin-13^1-(2-[(2-aminoethyl)amino]ethyl)amide]	1500	450
